We go through seven molecules from patent US9382295B2, “Cyclic depsipeptide compounds and their uses” (Cypralis Limited, priority 2012, dated 2016).

Molecules are shown by their SMILES. In brackets after ≈: the same amount, converted by molar mass. Like-named read-outs stand apart in the source and are kept apart here. Numbered stars: 1 amine (or outer) side, 2 acyl side, 3 side chain; on linkers, the order of the positions; unused ones are H or OH. Square brackets hold non-standard residues; d marks the D form. Peptide text beside a SMILES is read from it. X32 = CC(=O)N(CC[C@@H](C)[C@@H](O)[C@H](C(=O)[*:2])N(C)[*:1])C(C)C; X12 = C[C@H](CCN(C)Cc1ccncc1)[C@@H](O)[C@H](C(=O)[*:2])N(C)[*:1]; X29 = C[C@H](CCN(C)Cc1ccccn1)[C@@H](O)[C@H](C(=O)[*:2])N(C)[*:1]; X6 = C[C@H](CCN1CCOC[C@H]1C)[C@@H](O)[C@H](C(=O)[*:2])N(C)[*:1]; X7 = C[C@H](CCN(C)Cc1ccnn1C)[C@@H](O)[C@H](C(=O)[*:2])N(C)[*:1]; X15 = C[C@H](CCN1CCCCC1CO)[C@@H](O)[C@H](C(=O)[*:2])N(C)[*:1]; X31 = COCCN(C)CC[C@@H](C)[C@@H](O)[C@H](C(=O)[*:2])N(C)[*:1]; d(aThr) = C[C@@H](O)[C@@H](N)C(=O)O; NMeL = CN[C@@H](CC(C)C)C(=O)O; dNMeL = CN[C@H](CC(C)C)C(=O)O; dNMeV = CN[C@@H](C(=O)O)C(C)C; Hiv = CC(C)[C@H](O)C(=O)O; Sar = CNCC(=O)O

In one series the target is cyclophilin D (Cyp D) (Homo sapiens, UniProt P30405). Briefly: Protease-free PPIase assay, cyclophilin D. The series is classed as biochemical. The procedure:
(§1) The protease-free PPIase assay measures the rate of cis to trans conversion of a peptide substrate catalyzed by the enzymes cyclophilin A and cyclophilin D. Addition of a cyclophilin inhibitor (e.g., a test compound) slows the catalyzed rate and a Ki value is obtained. […] 35 mM HEPES pH 7.8, filtered through a 0.2 μm filter. 50 μM DTT was added prior to use each day and then the buffer was stored on ice. Succinimide-[…]) (from Bachem AG, L-1400), 20 mg/ml prepared in 0.5 M LiCl in trifluoroethanol. All readings were taken with an Agilent 8453 Spectrophotometer which consists of a cuvette holder, stirrer and chiller to maintain a stirred cuvette temperature of 10.0±0.1° C. The temperature is monitored by the use of temperature probe. […] The inhibitor was diluted in 100% DMSO, and then added to the assay to a maximum final concentration of 0.5% DMSO in the assay. A blank spectrum was obtained, then 3 μL of enzyme was added (2 nM final concentration) and then 3 μL substrate (60 μM final concentration) added. The absorbance was measured at 330 nm for 300 s or 500 s for blank runs (NOTE: the substrate must be added in one quick injection and the measurements started immediately to minimize mixing errors). A first order rate equation was fitted to the absorbance data, for each concentration of inhibitor, to obtain the rate constant (the first 10 to 15 seconds were excluded as mixing causes errors in this portion of curve). The catalytic rate was calculated from the enzymatic rate constant minus the background rate constant. An exponential curve was generated using the catalytic rate constants versus the inhibitor concentration to obtain the Ki value for the inhibitor. The Ki value is indicative of the binding affinity between the test compound and cyclophilin A or cyclophilin D.

The target in another series is T1, cyclophilin A (Cyp A) (Homo sapiens, UniProt P62937).
T1 construct: purchased Sigma C3805
The experiment in a line: Protease-free PPIase assay, cyclophilin A. The series is classed as biochemical. Here is the method: as §1, with “ice. Human recombinant cyclophilin A (Cyp A) (Sigma C3805) enzyme was diluted to 1 μM with enzyme dilution buffer (20 mM HEPES pH 7.8, 40% glycerol, 50 μM DTT and 1 μM BSA) and stored at -20° C.” for “ice.”

A short description of series [1]: Water solubility assay (pH 7.8 buffer). The class given is physicochemical. The procedure: ***Water Solubility Assay (Measured in pH 7.8 Buffer)
The onset of precipitation, if it occurred, was detected by an increase in absorbance at 650 nm.
Assay Buffer: 35 mM HEPES pH 7.8
Stock solutions of Control and Test Compounds: 10 mM in 100% DMSO
10 mM stock solutions of control and test compounds were prepared in 100% DMSO. A series of dilutions were prepared from the stock in DMSO so that the final concentrations in the assay were 0, 3.33, 10, 25, 50, 75 and 100 μM and DMSO was limited to 1%.
Assay buffer (247.5 μl) was placed into flat bottomed transparent 96-well plate. For blank samples DMSO (2.5 μl) was added. For test and control samples 2.5 μl of the appropriate DMSO dilution stocks were added to the appropriate well. All test and control compounds were performed in triplicate.
The plates were sealed with adhesive plate seal and shaken at 250 rpm at 25° C. for 18 h on a plate shaker.
After incubation the plate seals were taken off and any bubbles observed in wells removed. The plates were read on a SpectraMaxM5 with a 5 s pre-shake at 650 nm.
Data files were transferred to the appropriate worksheet and the solubility range of the compounds was calculated from the data.
The values shown in the tables indicate the concentration in μM (micromolar) at which the compound remains in solution.

Where [2] appears, read: protease-free PPIase assay, class symbols, read-out: CypD Ki.
Where [3] appears, read: protease-free PPIase assay, class symbols, read-out: CypA Ki.
Setting [4] is: 35 mM HEPES buffer, 35 mM HEPES pH 7.8, 1% DMSO, 25° C., 18 h, concentration at which compound remains in solution, read-out: Solubility.

T1 sequence (P62937 whole entry): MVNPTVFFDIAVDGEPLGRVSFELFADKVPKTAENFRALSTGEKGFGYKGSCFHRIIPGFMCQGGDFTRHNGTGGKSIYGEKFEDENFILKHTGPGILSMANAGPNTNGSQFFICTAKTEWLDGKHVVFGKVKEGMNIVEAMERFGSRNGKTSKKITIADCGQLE
Chain of cyclophilin D (Cyp D) (P30405 30-207): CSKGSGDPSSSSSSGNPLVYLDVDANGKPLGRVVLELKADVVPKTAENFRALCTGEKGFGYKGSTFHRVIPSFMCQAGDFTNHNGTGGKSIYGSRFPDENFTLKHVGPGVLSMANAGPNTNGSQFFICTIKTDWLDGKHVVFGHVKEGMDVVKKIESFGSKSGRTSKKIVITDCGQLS

The term Ki denotes a dissociation constant, usually derived from enzyme kinetics or from competition with a known ligand. The term solubility denotes how much of the substance goes into solution per volume. Turning to `CC(C)C[C@@H]1C(=O)N[C@H](CC(C)C)C(=O)N(C)[C@H](C(C)C)C(=O)N(C)[C@H]([C@H](O)[C@H](C)CCN2CCCCC2CO)C(=O)N[C@H]([C@@H](C)O)C(=O)N(C)CC(=O)N(C)[C@@H](CC(C)C)C(=O)N[C@H](CC(C)C)C(=O)N(C)[C@H](CC(C)C)C(=O)N[C@H](C)C(=O)O[C@@H](C(C)C)C(=O)N1C` (stereo partly drawn) [Example 39, cyclo-[(2R,3R,4S)-4-hydroxy-1-(2-hydroxymethyl-piperidin-1-yl)-3-methyl-5-methylamino-hexanoic acid-Thr-Sar-MeLeu-Leu-MeLeu-Ala-D-Hiv-MeLeu-Leu-MeVal]] (cyclo([Hiv][dNMeL][dL][dNMeV][X15][d(aThr)][Sar][NMeL][dL][dNMeL][dA])), the inhibitory constant (Ki) was in the range of 25 to 100 nM on cyclophilin D (Cyp D) and 100 to 300 nM at cyclophilin A (Cyp A). In series [1] (pH 7.8), the solubility at 18 h was over 100 µM.

For `CC(C)C[C@@H]1C(=O)N[C@H](CC(C)C)C(=O)N(C)[C@H](C(C)C)C(=O)N(C)[C@H]([C@H](O)[C@H](C)CCN(C)Cc2ccccn2)C(=O)N[C@H]([C@@H](C)O)C(=O)N(C)CC(=O)N(C)[C@@H](CC(C)C)C(=O)N[C@H](CC(C)C)C(=O)N(C)[C@H](CC(C)C)C(=O)N[C@H](C)C(=O)O[C@@H](C(C)C)C(=O)N1C` [Example 31, cyclo-[(3R,4R,5S)-4-(hydroxy)-3-methyl-5-(methylamino)-1-N-(methyl-pyridin-2-ylmethyl-amino)-hexanoic acid-Thr-Sar-MeLeu-Leu-MeLeu-Ala-D-Hiv-MeLeu-Leu-MeVal]] (cyclo([Hiv][dNMeL][dL][dNMeV][X29][d(aThr)][Sar][NMeL][dL][dNMeL][dA])), the figures for the Ki on cyclophilin D (Cyp D) (setting [2]) and on cyclophilin A (Cyp A) (setting [3]) were 1 to 25 nM and 25 to 100 nM, respectively. Besides, in series [1] (setting [4]), the solubility at 18 h lay in the range of 50 to 75 µM (≈ 67.1 to 101 µg/mL).

Turning to `CC(C)C[C@@H]1C(=O)N[C@H](CC(C)C)C(=O)N(C)[C@H](C(C)C)C(=O)N(C)[C@H]([C@H](O)[C@H](C)CCN2CCOC[C@H]2C)C(=O)N[C@H]([C@@H](C)O)C(=O)N(C)CC(=O)N(C)[C@@H](CC(C)C)C(=O)N[C@H](CC(C)C)C(=O)N(C)[C@H](CC(C)C)C(=O)N[C@H](C)C(=O)O[C@@H](C(C)C)C(=O)N1C` [Example 29, cyclo-[(3R,4R,5S)-4-(hydroxy)-3-methyl-5-(methylamino)-1-N—((R)-3-Methyl-morpholine)-hexanoic acid-Thr-Sar-MeLeu-Leu-MeLeu-Ala-D-Hiv-MeLeu-Leu-MeVal]] (cyclo([Hiv][dNMeL][dL][dNMeV][X6][d(aThr)][Sar][NMeL][dL][dNMeL][dA])), the inhibition constant (Ki) at cyclophilin D (Cyp D) and at cyclophilin A (Cyp A) was 25 to 100 nM in each case. Moreover, the solubility at 18 h in series [1] (pH 7.8) is over 100 µM.

`CC(=O)N(CC[C@@H](C)[C@@H](O)[C@@H]1C(=O)N[C@H]([C@@H](C)O)C(=O)N(C)CC(=O)N(C)[C@@H](CC(C)C)C(=O)N[C@H](CC(C)C)C(=O)N(C)[C@H](CC(C)C)C(=O)N[C@H](C)C(=O)O[C@@H](C(C)C)C(=O)N(C)[C@H](CC(C)C)C(=O)N[C@H](CC(C)C)C(=O)N(C)[C@H](C(C)C)C(=O)N1C)C(C)C` [Example 38, cyclo-[(3R,4R,5S)-1-(acetyl-isopropyl-amino)-4-hydroxy-3-methyl-5-methylamino-hexanoic acid-Thr-Sar-MeLeu-Leu-MeLeu-Ala-D-Hiv-MeLeu-Leu-MeVal]] (cyclo([Hiv][dNMeL][dL][dNMeV][X32][d(aThr)][Sar][NMeL][dL][dNMeL][dA])): the figures for the Ki at cyclophilin D (Cyp D) and on cyclophilin A (Cyp A) were 1 to 25 nM and 25 to 100 nM, respectively. The same molecule yielded a solubility at 18 h in series [1] (pH 7.8) of 50 to 75 µM (≈ 66 to 99.1 µg/mL).

On to `COCCN(C)CC[C@@H](C)[C@@H](O)[C@@H]1C(=O)N[C@H]([C@@H](C)O)C(=O)N(C)CC(=O)N(C)[C@@H](CC(C)C)C(=O)N[C@H](CC(C)C)C(=O)N(C)[C@H](CC(C)C)C(=O)N[C@H](C)C(=O)O[C@@H](C(C)C)C(=O)N(C)[C@H](CC(C)C)C(=O)N[C@H](CC(C)C)C(=O)N(C)[C@H](C(C)C)C(=O)N1C` [Example 10, cyclo-{(3R,4R,5S)-4-(hydroxy)-3-methyl-5-(methylamino)-1-N-[(2-methoxy-ethyl)-methyl-amino]-hexanoic acid-Thr-Sar-MeLeu-Leu-MeLeu-Ala-D-Hiv-MeLeu-Leu-MeVal}] (cyclo([Hiv][dNMeL][dL][dNMeV][X31][d(aThr)][Sar][NMeL][dL][dNMeL][dA])), for which the inhibition constant (Ki) on cyclophilin D (Cyp D) was in the range of 1 to 25 nM; on cyclophilin A (Cyp A), 25 to 100 nM. The same molecule yielded a solubility at 18 h in series [1] (pH 7.8) of over 100 µM.

For `CC(C)C[C@@H]1C(=O)N[C@H](CC(C)C)C(=O)N(C)[C@H](C(C)C)C(=O)N(C)[C@H]([C@H](O)[C@H](C)CCN(C)Cc2ccncc2)C(=O)N[C@H]([C@@H](C)O)C(=O)N(C)CC(=O)N(C)[C@@H](CC(C)C)C(=O)N[C@H](CC(C)C)C(=O)N(C)[C@H](CC(C)C)C(=O)N[C@H](C)C(=O)O[C@@H](C(C)C)C(=O)N1C` [Example 3, cyclo-[(3R,4R,5S)-4-(hydroxy)-3-methyl-5-(methylamino)-1-N-(methyl-pyridin-4-ylmethyl-amino)-hexanoic acid-Thr-Sar-MeLeu-Leu-MeLeu-Ala-D-Hiv-MeLeu-Leu-MeVal]] (cyclo([Hiv][dNMeL][dL][dNMeV][X12][d(aThr)][Sar][NMeL][dL][dNMeL][dA])), the Ki on cyclophilin D (Cyp D) (setting [2]) and on cyclophilin A (Cyp A) (setting [3]) was 1 to 25 nM in each case. For the same molecule, the solubility at 18 h in series [1] (setting [4]) lay within 50 to 75 µM (≈ 67.1 to 101 µg/mL).

Turning to `CC(C)C[C@@H]1C(=O)N[C@H](CC(C)C)C(=O)N(C)[C@H](C(C)C)C(=O)N(C)[C@H]([C@H](O)[C@H](C)CCN(C)Cc2ccnn2C)C(=O)N[C@H]([C@@H](C)O)C(=O)N(C)CC(=O)N(C)[C@@H](CC(C)C)C(=O)N[C@H](CC(C)C)C(=O)N(C)[C@H](CC(C)C)C(=O)N[C@H](C)C(=O)O[C@@H](C(C)C)C(=O)N1C` [Example 5, cyclo-{(3R,4R,5S)-4-(hydroxy)-3-methyl-5-(methylamino)-1-N-[methyl-(2-methyl-2H-pyrazol-3-ylmethyl)-amino]-hexanoic acid-Thr-Sar-MeLeu-Leu-MeLeu-Ala-D-Hiv-MeLeu-Leu-MeVal}] (cyclo([Hiv][dNMeL][dL][dNMeV][X7][d(aThr)][Sar][NMeL][dL][dNMeL][dA])), the inhibitory constant (Ki) at cyclophilin D (Cyp D) (setting [2]) and on cyclophilin A (Cyp A) (setting [3]) was 1 to 25 nM in each case. Besides, the solubility at 18 h in series [1] (setting [4]) was 50 to 75 µM (≈ 67.2 to 101 µg/mL).
